Reference: patent publication US20260262643A1, “HERBICIDAL BENZOXAZINES” (FMC CORPORATION, priority 2022, published 2026)
Where two headings read alike, the source gives them in different places.

Assays:
blackgrass = assay: Test A preemergence; assay type: in vivo, Alopecurus myosuroides; conditions: Alopecurus myosuroides, pre-emergence, 240 h, read-out: Plant response rating, Blackgrass; for pest or weed control at 125 g/ha: 125 g ai/ha; for pest or weed control at 500 g/ha: 500 g ai/ha
In short: (§1)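 Weeds and crops in loam–sand blend were sprayed preemergence onto soil or postemergence at 2–10 cm (one- to two-leaf stage). Test chemicals were in a non-phytotoxic solvent with surfactant. After 10 days in the greenhouse, injury was rated visually against untreated controls on a 0 (no effect) to 100 (complete control) scale.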

kochia [1] = assay: Test A preemergence; assay type: in vivo, Bassia scoparia; conditions: Bassia scoparia, pre-emergence, 240 h, read-out: Plant response rating, Kochia; for pest or weed control at 125 g/ha: 125 g ai/ha; for pest or weed control at 500 g/ha: 500 g ai/ha
In short: as §1

oat, wild [2] = assay: Test A preemergence; assay type: in vivo, Avena fatua; conditions: Avena fatua, pre-emergence, 240 h, read-out: Plant response rating, Oat, Wild; for pest or weed control at 125 g/ha: 125 g ai/ha; for pest or weed control at 500 g/ha: 500 g ai/ha
In short: as §1

pigweed, palmer = assay: Test A preemergence; assay type: in vivo, Amaranthus palmeri; conditions: Amaranthus palmeri, pre-emergence, 240 h, read-out: Plant response rating, Pigweed, Palmer; for pest or weed control at 125 g/ha: 125 g ai/ha; for pest or weed control at 500 g/ha: 500 g ai/ha
In short: as §1

soybean [3] = assay: Test A preemergence; assay type: in vivo, Glycine max; conditions: Glycine max, pre-emergence, 240 h, read-out: Plant response rating, Soybean; for plant injury at 125 g/ha: 125 g ai/ha; for plant injury at 500 g/ha: 500 g ai/ha
In short: as §1

kochia [4] = assay: Test A postemergence; assay type: in vivo, Bassia scoparia; conditions: Bassia scoparia, post-emergence, 240 h; for pest or weed control at 125 g/ha: 125 g ai/ha; for pest or weed control at 500 g/ha: 500 g ai/ha
In short: as §1

oat, wild [5] = assay: Test A postemergence; assay type: in vivo, Avena fatua; conditions: Avena fatua, post-emergence, 240 h; for pest or weed control at 125 g/ha: 125 g ai/ha; for pest or weed control at 500 g/ha: 500 g ai/ha
In short: as §1

ragweed = assay: Test A postemergence; assay type: in vivo, Ambrosia artemisiifolia; conditions: Ambrosia artemisiifolia, post-emergence, 240 h; for pest or weed control at 125 g/ha: 125 g ai/ha; for pest or weed control at 500 g/ha: 500 g ai/ha
In short: as §1

ryegrass, Italian = assay: Test A postemergence; assay type: in vivo, Lolium multiflorum; conditions: Lolium multiflorum, post-emergence, 240 h; for pest or weed control at 125 g/ha: 125 g ai/ha; for pest or weed control at 500 g/ha: 500 g ai/ha
In short: as §1

soybean [6] = assay: Test A postemergence; assay type: in vivo, Glycine max; conditions: Glycine max, post-emergence, 240 h; for plant injury at 125 g/ha: 125 g ai/ha; for plant injury at 500 g/ha: 500 g ai/ha
In short: as §1

wheat = assay: Test A postemergence; assay type: in vivo, Triticum aestivum; conditions: Triticum aestivum, post-emergence, 240 h; for plant injury at 125 g/ha: 125 g ai/ha; for plant injury at 500 g/ha: 500 g ai/ha
In short: as §1

galium = assay: Test A postemergence; assay type: in vivo, Galium aparine; conditions: Galium, post-emergence, 240 h; for pest or weed control at 125 g/ha: 125 g ai/ha; for pest or weed control at 500 g/ha: 500 g ai/ha
In short: as §1

ducksalad = assay: Test B flooded paddy test; assay type: in vivo, Heteranthera limosa; conditions: Heteranthera limosa, 312 h, 250 g ai/ha, Flood, 13 days, 0 to 100 scale (0 no effect, 100 complete control); read-out: Plant response rating, Ducksalad
In short: (§2)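 Each species was raised to the 2-leaf stage. At treatment, each pot received floodwater 3 cm deep, with the chemical delivered into the water. Greenhouse holding followed for 13 days, then percent control was estimated visually versus untreated pots.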

rice = assay: Test B flooded paddy test; assay type: in vivo, Oryza sativa; conditions: Oryza sativa, 312 h; 250 g ai/ha, Flood, 13 days, 0 to 100 scale (0 no effect, 100 complete control); read-out: Plant response rating, Rice
In short: as §2

sedge, umbrella = assay: Test B flooded paddy test; assay type: in vivo, Cyperus difformis; conditions: Cyperus difformis, 312 h; 250 g ai/ha, Flood, 13 days, 0 to 100 scale (0 no effect, 100 complete control); read-out: Plant response rating, Sedge, Umbrella
In short: as §2

[7] = visual injury after 10 days, 0 to 100 scale, 0 is no effect, 100 is complete control
[8] = 0 to 100 scale (0 no effect, 100 complete control), 10 days
[9] = postemergence, 10 days, visual injury, 0 to 100 scale (0 no effect, 100 complete control), read-out: Plant response rating, Kochia
[10] = postemergence, 10 days, visual injury, 0 to 100 scale (0 no effect, 100 complete control), read-out: Plant response rating, Oat, Wild
[11] = postemergence, 10 days, visual injury, 0 to 100 scale (0 no effect, 100 complete control), read-out: Plant response rating, Ragweed
[12] = postemergence, 10 days, visual injury, 0 to 100 scale (0 no effect, 100 complete control), read-out: Plant response rating, Ryegrass, Italian
[13] = postemergence, 10 days, visual injury, 0 to 100 scale (0 no effect, 100 complete control), read-out: Plant response rating, Soybean
[14] = postemergence, 10 days, visual injury, 0 to 100 scale (0 no effect, 100 complete control), read-out: Plant response rating, Wheat
[15] = postemergence, 10 days, visual injury, 0 to 100 scale (0 no effect, 100 complete control), read-out: Plant response rating, Galium

SMILES: C#Cc1ncn(-c2cccc(C(=O)N3C[C@H](C)Oc4c(C)cccc43)c2)n1 [Compound 64, [(2S)-2,3-Dihydro-2,8-dimethyl-4H-1,4-benzoxazin-4-yl][3-(3-ethynyl-1H-1,2,4-triazol-1-yl)phenyl]methanone]
- pest or weed control at 125 g/ha (blackgrass; [7]): 80%
- pest or weed control at 500 g/ha (blackgrass; [8]): 90%
- pest or weed control at 125 g/ha (kochia [1]; [7]): 80%
- pest or weed control at 500 g/ha (kochia [1]; [8]): 90%
- pest or weed control at 125 g/ha (oat, wild [2]; [7]): 30%
- pest or weed control at 500 g/ha (oat, wild [2]; [8]): 70%
- pest or weed control at 125 g/ha (pigweed, palmer; [7]): 40%
- pest or weed control at 500 g/ha (pigweed, palmer; [8]): 100%
- plant injury at 125 g/ha (soybean [3]; [7]): 20%
- plant injury at 500 g/ha (soybean [3]; [8]): 30%
- pest or weed control at 125 g/ha (kochia [4]; [9]): 60%
- pest or weed control at 500 g/ha (kochia [4]; Postemergence, 0 to 100 scale, read-out: Plant response rating, Kochia): 80%
- pest or weed control at 125 g/ha (oat, wild [5]; [10]): 50%
- pest or weed control at 500 g/ha (oat, wild [5]; Postemergence, 0 to 100 scale, read-out: Plant response rating, Oat, Wild): 70%
- pest or weed control at 125 g/ha (ragweed; [11]): 0%
- pest or weed control at 500 g/ha (ragweed; Postemergence, 0 to 100 scale, read-out: Plant response rating, Ragweed): 40%
- pest or weed control at 125 g/ha (ryegrass, Italian; [12]): 40%
- pest or weed control at 500 g/ha (ryegrass, Italian; Postemergence, 0 to 100 scale, read-out: Plant response rating, Ryegrass, Italian): 100%
- plant injury at 125 g/ha (soybean [6]; [13]): 80%
- plant injury at 500 g/ha (soybean [6]; Postemergence, 0 to 100 scale, read-out: Plant response rating, Soybean): 100%
- plant injury at 125 g/ha (wheat; [14]): 10%
- plant injury at 500 g/ha (wheat; Postemergence, 0 to 100 scale, read-out: Plant response rating, Wheat): 40%
- pest or weed control at 125 g/ha (galium; [15]): 90%
- pest or weed control at 500 g/ha (galium; Postemergence, 0 to 100 scale, read-out: Plant response rating, Galium): 100%
- pest or weed control at 250 g/ha (ducksalad): 25%
- plant injury at 250 g/ha (rice): 0%
- pest or weed control at 250 g/ha (sedge, umbrella): 75%

SMILES: Cc1cccc2c1O[C@@H](C)CN2C(=O)c1cccc(-n2cnn(C)c2=O)c1 [Compound 117, 4-[3-[[(2S)-2,3-Dihydro-2,8-dimethyl-4H-1,4-benzoxazin-4-yl]carbonyl]phenyl]-2,4-dihydro-2-methyl-3H-1,2,4-triazol-3-one]
- pest or weed control at 125 g/ha (blackgrass; [7]): 30%
- pest or weed control at 500 g/ha (blackgrass; [7]): 90%
- pest or weed control at 125 g/ha (kochia [1]; [7]): 0%
- pest or weed control at 500 g/ha (kochia [1]; [7]): 60%
- pest or weed control at 125 g/ha (oat, wild [2]; [7]): 20%
- pest or weed control at 500 g/ha (oat, wild [2]; [7]): 70%
- pest or weed control at 125 g/ha (pigweed, palmer; [7]): 20%
- pest or weed control at 500 g/ha (pigweed, palmer; [7]): 80%
- plant injury at 125 g/ha (soybean [3]; [7]): 30%
- plant injury at 500 g/ha (soybean [3]; [7]): 70%
- pest or weed control at 125 g/ha (kochia [4]; postemergence, 10 days, 0 to 100 scale (0 no effect, 100 complete control), read-out: Kochia plant response rating): 30%
- pest or weed control at 500 g/ha (kochia [4]; [9]): 70%
- pest or weed control at 125 g/ha (oat, wild [5]; postemergence, 10 days, 0 to 100 scale (0 no effect, 100 complete control), read-out: Oat, Wild plant response rating): 10%
- pest or weed control at 500 g/ha (oat, wild [5]; [10]): 40%
- pest or weed control at 125 g/ha (ragweed; postemergence, 10 days, 0 to 100 scale (0 no effect, 100 complete control), read-out: Ragweed plant response rating): 0%
- pest or weed control at 500 g/ha (ragweed; [11]): 0%
- pest or weed control at 125 g/ha (ryegrass, Italian; postemergence, 10 days, 0 to 100 scale (0 no effect, 100 complete control), read-out: Ryegrass, Italian plant response rating): 30%
- pest or weed control at 500 g/ha (ryegrass, Italian; [12]): 60%
- plant injury at 125 g/ha (soybean [6]; postemergence, 10 days, 0 to 100 scale (0 no effect, 100 complete control), read-out: Soybean plant response rating): 60%
- plant injury at 500 g/ha (soybean [6]; [13]): 100%
- plant injury at 125 g/ha (wheat; postemergence, 10 days, 0 to 100 scale (0 no effect, 100 complete control), read-out: Wheat plant response rating): 10%
- plant injury at 500 g/ha (wheat; [14]): 40%
- pest or weed control at 125 g/ha (galium; postemergence, 10 days, 0 to 100 scale (0 no effect, 100 complete control), read-out: Galium plant response rating): 0%
- pest or weed control at 500 g/ha (galium; [15]): 0%
- pest or weed control at 250 g/ha (ducksalad): 0%
- plant injury at 250 g/ha (rice): 0%
- pest or weed control at 250 g/ha (sedge, umbrella): 0%
